Tested on: fenestration defects on buccal aspect of mandibular first molar in mice
Test: Fenestration defect model with microCT of mandibles
Type: in vivo
Details: high dose (10 uM, 1 uL on collagen sponge in defect); 28 days; compared to ALPL, DMSO and low dose
Procedure: Fenestration defects were created on buccal aspect of mandibular first molar, distal root, in 6-7 week old mice. Collagen sponge with 1 uL of either alkaline phosphatase (ALPL) (100 ng/uL), DMSO (1 uL undiluted), high dose ENPP1 inhibitor (10 uM), low dose ENPP1 inhibitor (1 uM) was applied in the defect (n=3 or 4 for each group). Mice were euthanized 28 days later, and their mandibles were microCT scanned (unoperated side, defect side). A region of interest was defined as follows: • Right and left sides registered to each other to standardize position; • 480 microns mesial to and 3600 microns distal to first molar mesial height of contour; and
Unoperated side with defect side were registered, the enamel was removed from analysis, and change in volume (defect side—control side) was calculated from for dentin/cementum and alveolar bone for each treatment: ALPL, DMSO, low dose ENPP1 inhibitor, and high dose ENPP1 inhibitor. Regenerated bone area was much larger than defect size. To make the defect, muscle attachment was severed, and the region was curetted. Because the collagen sponge was placed in the defect and not fully enclosed (muscle was repositioned and sutured over sponge), there could be some leakage of DMSO/ALP/ENPP1 inhibitor, further stimulating bone growth.

**Q.** Which “bone densities on the fenestration side (density heat maps)” value does the source give for `COc1ccc2c(-c3ccc(CNS(N)(=O)=O)cc3)ccnc2c1` [ENPP1 inhibitor, N-[[4-(7-methoxy-4-quinolinyl)phenyl]methyl]-sulfamide] here?
**A.** higher
